Source: paper PMC8480782, “Efficient Dimerization Disruption of Leishmania infantum Trypanothione Reductase by Triazole-phenyl-thiazoles” (Journal of Medicinal Chemistry, 2021)
Several values for one entry are separate records, joined by “and”; a condition that tells them apart may be missing. Equal values may be shown once. Read-outs that look alike come from different tables or passages of the source.

Assays:
[1] = molecular target: T1, LiTryR dimer (Leishmania infantum, UniProt A4HSF7); test: biochemical; details: for IC50: 400 nM LiTryR, 16 h at 37 °C, read-out: IC50^dim, LiTryR monomer displacement (dimer quantitation ELISA); for inhibition at 20 µM: read-out: Percentage of inhibition (dimerization) observed at 20 μM, 20 μM compound
T1 construct: made in house; host or cells: E. coli BL21 (DE3) Rossetta (co-transformed with both plasmids)
T1 sequence (A4HSF7 1-491): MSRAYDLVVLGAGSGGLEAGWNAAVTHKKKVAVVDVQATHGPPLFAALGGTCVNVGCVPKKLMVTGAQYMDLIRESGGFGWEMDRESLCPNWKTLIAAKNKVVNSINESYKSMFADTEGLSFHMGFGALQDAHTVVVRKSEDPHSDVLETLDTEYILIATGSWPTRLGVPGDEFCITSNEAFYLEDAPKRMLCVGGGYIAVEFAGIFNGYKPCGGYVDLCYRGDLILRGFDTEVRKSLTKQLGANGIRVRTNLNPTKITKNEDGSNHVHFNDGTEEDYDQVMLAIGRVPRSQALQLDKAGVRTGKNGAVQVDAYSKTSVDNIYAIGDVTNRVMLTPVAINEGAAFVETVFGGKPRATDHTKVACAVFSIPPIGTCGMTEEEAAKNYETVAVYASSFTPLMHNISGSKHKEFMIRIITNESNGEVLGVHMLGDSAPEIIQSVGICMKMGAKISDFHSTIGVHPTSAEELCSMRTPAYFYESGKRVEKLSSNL
Procedure: The stability of the LiTryR dimeric form in the presence of 1,2,3-triazole-phenyl-thiazole-based compounds was evaluated using the novel enzyme-linked immunosorbent assay (ELISA) developed in our laboratory.[25] […] Next, the different solutions were centrifuged at 18 000g for 15 min at room temperature. The supernatants (200 μL/well) were added to the α-FLAG-coated plates (Sigma-Aldrich, St. Louis, MO) and incubated for 30 min at 37 °C with agitation in a humid atmosphere. The plates were washed five times with TTBS buffer (2 mM Tris, pH 7.6, 138 mM NaCl, and 0.1% Tween-20) and incubated with diluted monoclonal α-HIS horseradish peroxidase (HRP)-conjugated antibody (200 μL, 1:50 000, Abcam, Cambridge, U.K.) in fatty acid- and essentially globulin-free bovine serum albumin (BSA) (5%) prepared in TTBS buffer for 1 h at room temperature. The plates were washed five times, and o-phenylenediamine dihydrochloride (OPD) substrate prepared according to the manufacturer’s instructions was added. The enzymatic reaction was stopped after 5 min with H2SO4 (100 μL, […]), and the absorbances were measured at 490 nm in an EnSpire Multimode Plate Reader (PerkinElmer, Waltham, MA). All of the assays were conducted in triplicate in at least three independent experiments. Data were analyzed using a nonlinear regression model with GraFit 6 software (Erithacus, Horley, Surrey, U.K.).

[2] = tested on: L. infantum axenic amastigotes; test: Leishmanicidal activity on axenic amastigotes (PI exclusion, flow cytometry); format: cell-based, Leishmania infantum; details: for EC50: Leishmania infantum, read-out: EC50 amastigotes; for SIa (ratio of EC50 against human cells to EC50 against amastigotes): HepG2 / axenic amastigotes
How it was run: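 Leishmania infantum axenic amastigotes (MCAN/ES/89/IPZ229/1/89) were cultured at 37 °C in M199 medium, pH 5.4, with 10% heat-inactivated FCS, organic acids, MES, hemin and gentamicine. After compound exposure, parasites were gated by FSC/SSC and live versus dead cells were distinguished by propidium iodide exclusion using flow cytometry. EC50 values came from nonlinear regression in GraFit 6, with triplicates in at least three independent experiments.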

[3] = tested on: HepG2 cells; test: Cellular toxicity, crystal violet assay; format: cell-based; details: Homo sapiens, read-out: EC50 HepG2
Procedure: Liver hepatocellular carcinoma HepG2 cells were grown in Dulbecco’s modified Eagle’s medium (DMEM) (Sigma-Aldrich, St. Louis, MO) with 10% heat-inactivated FCS, antibiotics, and 10 mM HEPES.
Drug treatment of liver hepatocellular carcinoma HepG2 cells was performed at a concentration of 10^5 cells/mL at 37 °C and 5% CO2 for 24 h. EC50 was evaluated by the crystal violet assay. Briefly, cells were washed with phosphate-buffered saline (PBS) and stained with 200 μL of crystal violet solution (0.2% crystal violet, 2% ethanol) for 10 min at room temperature. Next, the plates were washed twice with tap water and allowed to dry. The stained cells were solubilized with 400 μL of 1% sodium dodecyl sulfate (SDS), and the color intensity was quantified at 570 nm using an EnSpire Multimode Plate Reader (PerkinElmer, Waltham, MA). All of the assays were conducted in triplicate in at least three independent experiments. Data were analyzed using a nonlinear regression model with GraFit 6 software (Erithacus, Horley, Surrey, U.K.).

[4] = axenic amastigotes, 24 h at 37 °C
[5] = HepG2, 24 h, crystal violet method

Row | SMILES | IC50 [1] | EC50 [2, 4] | EC50 [3, 5] | inhibition at 20 µM [1] | SIa (ratio of EC50 against human cells to EC50 against amastigotes) [2] | EC50 ([2]; 24 h) | EC50 ([3]; HepG2, 24 h) | fold more potent than 12n, IC50^dim ([1]; versus monomeric 12n)
1 | NCCCCc1cn(-c2ccc(-c3nc(-c4ccccc4)cs3)c(OCCN3CCNC3=O)c2)nn1.O=C(O)C(F)(F)F [12n] | 29 ± 1.5 µM | 11.5 ± 0.3 µM | 16.4 ± 2.3 µM |  |  |  |  | 
2 | NCCNCc1nccn1-c1ccc(-c2nc(CCc3ccc4ccccc4c3)cs2)c(OCCN2CCNC2=O)c1 [compound 2, reference compound] |  | 12.8 ± 1.3 µM | 27.1 ± 2.4 µM | ~30% | 2.1/2.1 |  |  | 
3 | NCCCCc1cn(-c2ccc(-c3nc(CCc4ccc5oc6ccccc6c5c4)cs3)c(OCCN3CCNC3=O)c2)nn1.O=C(O)C(F)(F)F [12s] | 8.8 ± 0.2 µM |  |  |  | ND/>1.1 | 68.8 ± 3.2 µM | > 75 µM | 
4 | NCCNCc1nccn1-c1ccc(-c2nc(CCc3ccc(-c4ccccc4)cc3)cs2)c(OCCN2CCNC2=O)c1 [compound 3, reference compound] |  | 5.3 ± 0.2 µM | 14.2 ± 0.9 µM | ~30% | 2.7 and 2.7/2.7 |  |  | 
5 | NCCCCc1cn(-c2ccc(-c3nc(-c4ccc(Oc5ccccc5)cc4)c(-c4ccccc4)s3)c(OCCN3CCNC3=O)c2)nn1.O=C(O)C(F)(F)F [19c, 1-(2-(5-(4-(4-Ammoniobutyl)-1H-1,2,3-triazol-1-yl)-2-(4-([4-phenyloxyphenyl]-1-yl)-5-phenylthiazol-2-yl)phenoxy)ethyl)imidazolidin-2-one 2,2,2-Trifluoroacetate] | 9 ± 0.5 µM | 22.6 ± 5.7 µM | ≥ 75 µM |  | ND/≥3.3 |  |  | 
6 | NCCCCc1cn(-c2ccc(-c3nc(CCc4ccc5ccccc5c4)cs3)c(OCCN3CCNC3=O)c2)nn1.O=C(O)C(F)(F)F [12b, 1-(2-(5-(4-(4-Ammoniumbutyl)-1H-1,2,3-triazol-1-yl)-2-(4-(2-(naphthalen-2-yl)ethyl)thiazol-2-yl)phenoxy)ethyl)imidazolidin-2-one 2,2,2-Trifluoroacetate] | 7.1 ± 0.6 µM | 15.3 ± 1.7 µM | 33.3 ± 2.7 µM | 73% | 2.2 |  |  | 
7 | NCCCCc1cn(-c2ccc(-c3nc(-c4ccccc4)c(-c4ccccc4)s3)c(OCCN3CCNC3=O)c2)nn1.O=C(O)C(F)(F)F [19a, 1-(2-(5-(4-(4-Ammoniobutyl)-1H-1,2,3-triazol-1-yl)-2-(4,5-diphenylthiazol-2-yl)phenoxy)ethyl)imidazolidin-2-one 2,2,2-Trifluoroacetate] | 7.1 ± 1.7 µM | 15.6 ± 3 µM | 26.5 ± 4.1 µM |  | 1.7 |  |  | 
8 | NCCCCc1cn(-c2ccc(-c3nc(CCc4ccc(-c5ccccc5)cc4)cs3)c(OCCN3CCNC3=O)c2)nn1.O=C(O)C(F)(F)F [12c, 1-(2-(2-(4-(2-([1,1′-Biphenyl]-4-yl)ethyl)thiazol-2-yl)-5-(4-(4-ammoniumbutyl)-1H-1,2,3-triazol-1-yl)phenoxy)ethyl)imidazolidin-2-one 2,2,2-Trifluoroacetate] | 4.8 ± 0.6 µM | 11.6 ± 0.8 µM | 43.1 ± 2.6 µM | 78% | 3.7 |  |  | 
9 | NCCCCc1cn(-c2ccc(-c3nc(CCc4ccc5c(c4)CCO5)cs3)c(OCCN3CCNC3=O)c2)nn1.O=C(O)C(F)(F)F [12r] | 10.7 ± 0.5 µM | 22.3 ± 0.6 µM | 29.4 ± 0.7 µM |  | 1.3 |  |  | 
10 | NCCCCc1cn(-c2ccc(-c3nc(CCc4ccc5c(c4)CCCN5)cs3)c(OCCN3CCNC3=O)c2)nn1.O=C(O)C(F)(F)F.O=C(O)C(F)(F)F [12q] | > 75 µM | 27 ± 2.8 µM | 43.3 ± 1 µM |  | ND/1.6 |  |  | 
11 | NCCCc1cn(-c2ccc(-c3nc(CCc4ccc(-c5ccccc5)cc4)cs3)c(OCCN3CCNC3=O)c2)nn1.O=C(O)C(F)(F)F [12i] | 10.8 ± 0.1 µM | 5.2 ± 0.3 µM | 60.4 ± 3 µM |  | 11.6 |  |  | 
12 | NCCCCc1cn(-c2ccc(-c3nc(-c4cccc(-c5csc(-c6ccc(-n7cc(CCCCN)nn7)cc6OCCN6CCNC6=O)n5)c4)cs3)c(OCCN3CCNC3=O)c2)nn1.O=C(O)C(F)(F)F.O=C(O)C(F)(F)F [compound 22, 1,1′-((((1,3-Phenylenebis(thiazole-4,2-diyl))bis(5-(4-(4-ammoniobutyl)-1H-1,2,3-triazol-1-yl)-2,1-phenylene))bis(oxy))bis(ethane-2,1-diyl))bis(imidazolidin-2-one)bis(2,2,2-trifluoroacetate)] | 8 ± 0.2 µM | 4.9 ± 0.2 µM | 30.5 ± 4.1 µM |  | 6.2 |  |  | 4 fold
